According to patent publication US20070249555A1, “Use of Atp Analogues for Treatment of Cardiovascular Diseases” (INSTITUT NATIONAL DE LA SANTE ET DE LA RECHERCHE MEDICALE …, priority 2004, published 2007):

Key:
HepG2 cells = test: TG-HDL2 internalization by HepG2 cells; type: cell-based, human; settings: 10 min at 37° C.; for effect on the stimulation by ADP of the TG-HDL2 internalization: ADP 100 nM + A2P5P 100 μM or MRS2179 10 μM
Experimental: Cells were incubated for 10 minutes at 37° C. with 75 μg/ml^125I-TG-HDL2 without (control) or with apolipoprotein A-I 10 μg/ml (a), ADP 100 nM (b), AR-C69931MX 100 nM (c), ADP 100 nM+AR-C69931MX 100 nM (d), ADP 100 nM+[…] 100 μM (e), ADP 100 nM+MRS2179 10 μM (f). […] Internalization assays were performed as described in Guendouzi et al., (Biochemistry, 1998, 37: 14974-80) on HepG2 cells, obtained from the American Type Culture Collection ([…]). Cells were incubated for 10 minutes at 37° C. with 75 μg/ml of either ^125I-TG-HDL2, ^125I-HDL3 or ^125I-LDL. After washing and dissociation at 4° C. in phosphate buffered saline (PBS), cell radioactivity was determined using a Wallac 1261 multigamma apparatus. Prior experiments, cells were plated in polylysine-coated 24-multiwell plates (Falcon) at 4×10^4 cells per well. Cells were grown in Dulbecco's modified Eagles medium supplemented with 10% fetal calf serum, 100 units/ml penicillin, and 100 μg/ml streptomycin at 37° C. in a 5% CO2 and 95% air incubator. Medium was changed every 2 or 3 days, and the cells were subcultured every 7-8 days. Results are expressed as a percentage of internalization with respect to the control value (set at 0). Control corresponded to a basal value of internalization, amounting to 400 ng, 300 ng, 200 ng of TG-HDL2, HDL3 and LDL per mg of cells protein respectively for 10 minutes. Data as a mean ±SEM of at least 7, 5, 6 independent experiments, for TG-HDL2, HDL3 and LDL respectively.

human P2Y1 receptor = molecular target: T1, human P2Y1 receptor (Homo sapiens, UniProt P47900); test: TG-HDL2 internalization by HepG2 cells after P2Y1 receptor silencing by siRNA; type: cell-based; settings: HepG2, pool of 4 P2Y1 siRNAs 100 nM, 48 h; apoA-I 10 μg/ml, ADP 100 nM, AR-C69931MX 100 nM
T1 construct: host or cells: HepG2
Experimental: HepG2 cells were transiently transfected with siRNA designated to human P2Y1 receptor (columns d, e, f, g) or with non specific siRNA as control (a, b, c). 48 hours later, cells were incubated for 10 minutes at 37° C. with 75 μg/ml ^125I-TG HDL2 without (control) or with apolipoprotein A-I 10 μg/ml (a and d), ADP 100 nM (b and e), AR-C69931MX 100 nM (c and f), PBS (g). Data are expressed as a percentage of internalized radioactivity with respect to the control value (set as 0) (n>5); (*) p<0.05 (unpaired t-test).
(§1) Internalization assays were performed as described in Guendouzi et al., (Biochemistry, 1998, 37: 14974-80) on HepG2 cells, obtained from the American Type Culture Collection ([…]). Cells were incubated for 10 minutes at 37° C. with 75 μg/ml of either ^125I-TG-HDL2, ^125I-HDL3 or ^125I-LDL. After washing and dissociation at 4° C. in phosphate buffered saline (PBS), cell radioactivity was determined using a Wallac 1261 multigamma apparatus.
(§2) The silencing of the different P2Y receptors were carried-out using the siRNA technique. The siRNA sequenced targeting human P2Y13 receptor (Gene Bank GB/EMBL/DDBJ accession number AF295368) was from position 406 or 359 relative to the start codon. The siRNA duplex (21-nt-RNAs) in deprotected and desalted form, the siRNA targeting human P2Y1 receptor (a mix of 4 siRNAs, M-005689), and the non-specific control siRNA (D-001206-01) were purchased from Dharmacon Inc. Subconfluent HepG2 cells were transiently transfected with siRNAs (final concentration, 100 nM) using Oligofectamine™ according to the manufacturer's protocole (Invitrogen). Cells were usually assayed 48 hours after transfection. Specific silencing effect was confirmed by at least three independent experiments.
Results are expressed as a percentage of internalization with respect to the control value (set at 0). Control corresponded to a basal value of internalization, amounting to 400 ng, 300 ng, 200 ng of TG-HDL2, HDL3 and LDL per mg of cells protein respectively for 10 minutes. […]

human P2Y13 receptor = molecular target: T2, human P2Y13 receptor (Homo sapiens, UniProt Q9BPV8); test: TG-HDL2 internalization by HepG2 cells after P2Y13 receptor silencing by siRNA; type: cell-based; settings: HepG2, P2Y13 siRNA 100 nM, 48 h; apoA-I 10 μg/ml, ADP 100 nM, AR-C69931MX 100 nM
T2 construct: host or cells: HepG2
T2 sequence (Q9BPV8 1-354): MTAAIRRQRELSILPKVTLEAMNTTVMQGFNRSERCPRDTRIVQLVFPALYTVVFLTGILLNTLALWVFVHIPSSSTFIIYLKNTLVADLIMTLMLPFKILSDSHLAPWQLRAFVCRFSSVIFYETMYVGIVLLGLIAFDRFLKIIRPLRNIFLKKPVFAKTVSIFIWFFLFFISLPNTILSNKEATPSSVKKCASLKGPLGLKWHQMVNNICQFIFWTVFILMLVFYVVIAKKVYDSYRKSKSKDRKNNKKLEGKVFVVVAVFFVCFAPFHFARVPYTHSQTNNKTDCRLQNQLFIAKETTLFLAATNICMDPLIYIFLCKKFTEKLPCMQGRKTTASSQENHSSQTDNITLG
Experimental: Experiment was performed as in FIG. 2A with non-specific control siRNA (a, b, c) or with siRNA directed to human P2Y13 receptor (d, e, f, g) (n>7); (*) p<0.05 (unpaired t-test).
as §1, §2
Results are expressed as a percentage of internalization with respect to the control value (set at 0). Control corresponded to a basal value of internalization, amounting to 400 ng, 300 ng, 200 ng of TG-HDL2, HDL3 and LDL per mg of cells protein respectively for 10 minutes. Data as a mean ±SEM of at least 7, 5, 6 independent experiments, for TG-HDL2, HDL3 and LDL respectively.

T1 sequence (P47900 whole entry): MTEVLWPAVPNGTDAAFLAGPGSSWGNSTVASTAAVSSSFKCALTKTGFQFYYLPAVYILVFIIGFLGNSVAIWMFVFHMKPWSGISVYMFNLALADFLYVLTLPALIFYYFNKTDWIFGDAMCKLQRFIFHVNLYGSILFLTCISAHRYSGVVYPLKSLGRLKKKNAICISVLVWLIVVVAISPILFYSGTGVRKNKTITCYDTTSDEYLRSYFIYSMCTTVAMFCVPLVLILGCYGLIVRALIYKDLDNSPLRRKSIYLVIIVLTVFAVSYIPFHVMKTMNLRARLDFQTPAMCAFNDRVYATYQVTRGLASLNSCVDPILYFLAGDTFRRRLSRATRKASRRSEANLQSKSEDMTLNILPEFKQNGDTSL

effect of P2Y1 receptors silencing on the stimulation of TG-HDL2 endocytosis (human P2Y1 receptor)	effect of P2Y13 receptor silencing on TG-HDL2 endocytosis after stimulation (human P2Y13 receptor)	Compound	effect on the stimulation by ADP of the TG-HDL2 internalization (HepG2 cells)	internalization of 125I-TG-HDL2 by HepG2 cells, increase above control cells (HepG2 cells; 75 μg/ml 125I-TG-HDL2, apoA-I 10 μg/ml, ADP 100 nM, AR-C69931MX 100 nM alone) [%]
–	–	Nc1ncnc2c1ncn2[C@@H]1O[C@H](COP(=O)(O)O)[C@@H](O)[C@H]1OP(=O)(O)O [A2P5P]	no effect	–
–	–	CNc1ncnc2c1ncn2[C@H]1C[C@H](OP(=O)(O)O)[C@@H](COP(=O)(O)O)O1 [MRS2179]	no effect	–
no effect	dramatic inhibition	apoA-I: HDL apolipoprotein A-I; generates ADP through activation of the ectopic form of ATP synthase	–	20
